Assay results taken from paper PMC3974779, “Pterostilbene-Isothiocyanate Conjugate Suppresses Growth of Prostate Cancer Cells Irrespective of Androgen Receptor Status” (PLoS ONE, 2014).

Experiments:
[1] = test system: p-Akt in LNCaP cells; test: Immunoblot of Akt phosphorylation; type: cell-based, human; conditions: below 20 μM, 24 h
Method: (§1) The whole-cell lysates were prepared as described previously in immunoprecipitation (IP) buffer containing 50 mM Tris-HCl (pH 8.0), 150 mM NaCl, 5 mM EDTA, and 1% Triton X-100. Protein aliquots of 500 μg were then incubated overnight at 4°C using 2 μg of antibody directed against AR. The Protein A-Cl Agarose beads were then added and further incubated for 6 h at 4°C. The immunoprecipitates were washed four times with the IP buffer and the immunocomplexes were recovered by boiling in SDS sample buffer. Finally the western blot was carried out using anti-AR, anti-SRC-1 and anti-GRIP-1 antibodies (Santa Cruz, CA, USA). For western blot analysis, the cell lysates were prepared after harvesting them in lysis buffer. About 40 μg of total protein was electrophoresed by 12% SDS-PAGE, and the western blotting was carried out using standard protocol. In brief, the analyzed proteins were transferred to nylon membranes. The blots were then blocked with TBST buffer (20 mM Tris-Cl, pH 7.5, 150 mM sodium chloride, 0.05% Tween-20) containing 5% skim milk powder. They were then washed with TBST buffer and incubated overnight at 4°C with the same buffer containing appropriate amounts of primary antibodies: caspase-3, Bax, Bcl-2, Akt, p-Akt, ERK, p-ERK, AR, SRC-1, GRIP-1 (1∶500) and β-actin (1∶1000). The blots were then washed and incubated with anti-rabbit secondary antibody (1∶20,000) conjugated with horseradish peroxidase (HRP). Color development was performed in the dark by using an ECL kit (Amersham, GE Healthcare, Buckinghamshire, UK). The developed blots were subjected to densitometric analysis by ImageJ 1.43 software (NIH, USA) using β-actin as internal control.
(§2) The siRNAs against human Akt and ERK and control siRNA were purchased commercially from Santa Cruz Biotechnology (USA). The LNCaP and PC-3 PCa cells were transfected with siRNAs (at a final concentration of 100 nM) using polyfect transfection reagent (Qiagen, CA, USA) according to manufacturer’s instructions. After 24 h of transfection, the cells were washed properly and replaced with fresh medium. The cells were then treated with 20 μM conjugate for 24 h, and finally protein lysates were prepared on completion of treatment. The levels of p-Akt, p-ERK and cleaved caspase-3 expressions were detected by Western blot analysis.

[2] = test system: p-Akt in PC-3 cells; test: Immunoblot of Akt phosphorylation; type: cell-based, human; conditions: 24 h
Method: as §1, §2

[3] = molecular target: T1, androgen receptor in LNCaP cells (Homo sapiens, UniProt P10275, T878A); test: AR transactivation luciferase assay (pMMTV-luc); type: cell-based
T1 construct: LNCaP cells, that express endogenous AR; endogenous in cells; host or cells: LNCaP
T1 sequence (P10275 1-920 T878A): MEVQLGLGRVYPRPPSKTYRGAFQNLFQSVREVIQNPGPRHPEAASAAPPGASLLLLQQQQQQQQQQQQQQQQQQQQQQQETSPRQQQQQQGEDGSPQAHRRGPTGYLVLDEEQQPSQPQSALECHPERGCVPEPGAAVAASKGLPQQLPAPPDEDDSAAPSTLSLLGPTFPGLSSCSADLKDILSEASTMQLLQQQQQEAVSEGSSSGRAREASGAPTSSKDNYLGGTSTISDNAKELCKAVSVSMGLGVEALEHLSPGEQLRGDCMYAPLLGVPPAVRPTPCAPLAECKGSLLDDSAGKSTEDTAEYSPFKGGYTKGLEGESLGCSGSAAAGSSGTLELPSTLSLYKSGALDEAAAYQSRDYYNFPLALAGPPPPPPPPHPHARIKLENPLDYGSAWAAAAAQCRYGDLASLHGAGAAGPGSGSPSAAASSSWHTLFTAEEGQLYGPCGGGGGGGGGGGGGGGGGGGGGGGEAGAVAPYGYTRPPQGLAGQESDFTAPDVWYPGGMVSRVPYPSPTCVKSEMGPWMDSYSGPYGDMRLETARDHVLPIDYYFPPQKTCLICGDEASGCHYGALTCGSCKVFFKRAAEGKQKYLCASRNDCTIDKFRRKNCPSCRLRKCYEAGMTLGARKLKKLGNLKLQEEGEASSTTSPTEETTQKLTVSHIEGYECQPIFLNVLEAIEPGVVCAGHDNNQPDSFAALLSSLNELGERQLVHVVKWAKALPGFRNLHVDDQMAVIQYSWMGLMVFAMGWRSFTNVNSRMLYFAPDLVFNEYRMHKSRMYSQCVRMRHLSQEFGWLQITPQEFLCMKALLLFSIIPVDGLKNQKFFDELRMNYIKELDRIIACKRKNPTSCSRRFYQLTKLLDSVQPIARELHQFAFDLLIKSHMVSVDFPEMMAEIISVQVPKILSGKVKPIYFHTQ
Method: The LNCaP cells were grown and transiently transfected with pMMTV-neomycin-luciferase plasmid (300 ng/10^5 cells) in RPMI media supplemented with 10% FBS using polyfect transfection reagent (Qiagen, CA, USA) according to manufacturer’s instructions. Then, 24 h after transfection, the cell culture media were changed with media containing 5% charcoal-stripped FBS to reduce the contaminating steroids from the serum and incubated for an additional day before initiating the treatments. In case of PC-3 cells, they were similarly transfected, but in addition to pMMTV-neomycin-luciferase construct, they were also transfected with pSG5-hAR-puro plasmid (full length hAR in pSG5 expression vector) in the ratio of 5∶1 as indicated above. For experiments involving co-regulators, 50 ng of co-activator plasmids (25 ng each of GRIP-1 and SRC-1) along with pMMTV-neo-luc (250 ng) were transfected to LNCaP cells. To evaluate the transfection efficiency, 500 ng/105 cells of the SV40 promoter-Renilla luciferase (pRL-SV40) vector (Promega Madison, USA) were co-transfected as internal control. […] Each experimental point was performed in triplicate and varied by less than 10%. The values of luciferase for each lysates were normalized to the Renilla luciferase activity.

[4] = test system: LNCaP cells; test: MTT cell death with/without p53 inhibitor PFT-α; type: cell-based, human; conditions: 20 and 40 μM conjugate 24 h, 20 μM PFT-α pre-treatment
From the text: Since there was no significant difference in the number of apoptotic cells between conjugate treated LNCaP (wild type p53) and PC-3 (p53 null) cells (p<0.05), it was intriguing to check if p53 has any role in conjugate induced apoptosis of PCa cells. For this study we employed a pharmacological approach using specific wild type p53 inhibitor, pifithrin-α (PFT-α). PFT-α is a small molecule that binds to the DNA binding domain of p53, thereby inhibiting its transcriptional activity. For our experiment the LNCaP cells were pre-treated with 20 μM PFT-α for 2 h prior to the addition of 20 and 40 μM of conjugate for next 24 h. Subsequently the drug treated cells were used to check caspase-3 activity and cell death by immunoblot analysis (Fig. 4A) and MTT assay (Fig. 4B) respectively. […] Next we determined the effect of p53-inhibition on conjugate induced cell death by using MTT assay.

inhibition at 40 µM ([3]; read-out: inhibition of androgen-induced transactivation): ~73%
SMILES: COc1cc(/C=C/c2ccc(O)c(/C=N/NC(N)=S)c2)cc(OC)c1 [conjugate, Pterostilbene-isothiocyanate conjugate]
effect on level of p-Akt [1]: negligible effects
decrease in level of p-Akt ([2]; PC-3, 20 μM): ~2.2 folds
decrease in level of p-Akt ([2]; PC-3, 40 μM): ~4.4 folds
transcriptional activation by compound alone ([3]; 1–40 μM, without DHT): did not induce transcriptional activation
cell death with vs without PFT-α [4]: did not differ significantly
